Reference: patent US6720346B2, “Thiazole benzamide derivatives and pharmaceutical compositions for inhibiting cell proliferation” (Agouron Pharmaceuticals, Inc., priority 2001, dated 2004)

Experiments:
human CDK4/cyclin D3 = biological target: T1, human CDK4/cyclin D3 (Homo sapiens, UniProt P11802); assay: Inhibition of CDK4/cyclin D retinoblastoma kinase activity (Ki; % inhibition); format: biochemical; conditions: at 0.03 μM
T1 construct: made in house; host or cells: insect cells co-infected with baculovirus vectors
T1 sequence (P11802 whole entry): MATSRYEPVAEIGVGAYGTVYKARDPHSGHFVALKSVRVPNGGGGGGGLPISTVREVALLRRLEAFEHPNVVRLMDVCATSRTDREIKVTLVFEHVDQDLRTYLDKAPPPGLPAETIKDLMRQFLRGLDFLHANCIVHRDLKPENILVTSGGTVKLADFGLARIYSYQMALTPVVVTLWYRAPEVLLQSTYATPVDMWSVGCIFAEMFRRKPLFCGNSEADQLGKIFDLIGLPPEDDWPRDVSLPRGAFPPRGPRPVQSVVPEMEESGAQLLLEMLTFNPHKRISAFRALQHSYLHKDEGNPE
T1 sequence (P30281 1-264 partner limits assumed): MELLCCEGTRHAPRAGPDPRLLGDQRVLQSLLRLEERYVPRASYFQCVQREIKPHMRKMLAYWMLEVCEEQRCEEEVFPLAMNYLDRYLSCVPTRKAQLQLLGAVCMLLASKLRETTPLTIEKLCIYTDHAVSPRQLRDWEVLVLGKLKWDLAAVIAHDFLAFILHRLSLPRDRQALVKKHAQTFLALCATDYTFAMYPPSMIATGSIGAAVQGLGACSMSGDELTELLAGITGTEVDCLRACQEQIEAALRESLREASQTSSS
In short: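 Insect-cell-expressed CDK4 with truncated cyclin D3 (1-264), 5 nM, phosphorylating His-tagged Rb fragment (386-928) with 25 μM [32/33P]ATP at pH 7.4, 30 °C, 20 min (60 min for tight binders). Filter capture, phosphorimager read; % inhibition at 30 nM compound, Ki from competitive or tight-binding fits.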

HCT-116 cell line = assay: Inhibition of cell growth, MTT tetrazolium salt assay; format: cell-based; conditions: HCT-116, at 0.25 μM
In short: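 HCT-116 cells in McCoy's 5A were dosed 4 h after plating with compounds in 0.5% DMSO and grown 3–5 days at 37 °C. Then 0.2 mg/mL MTT was added for 4 h and formazan absorbance read at 540 nm. IC50/IC90 came from semi-log plots against DMSO-only controls.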

CDK2/cyclin A = biological target: T2, CDK2/cyclin A (Homo sapiens, UniProt P24941); assay: Inhibition of CDK2/cyclin A retinoblastoma kinase activity (Ki; % inhibition); format: biochemical; conditions: at 0.03 μM
T2 construct: made in house; host or cells: CDK2: insect cells (baculovirus); cyclin A: E. coli
In short: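 Radiometric filter assay of CDK2/proteolyzed cyclin A (baculovirus-expressed human CDK2, 10 or 19 nM) phosphorylating an Rb fragment with 25 μM [³²P/³³P]ATP in pH 7.4 HEPES, 2% DMSO, at 30 °C for 60 or 75 min under initial-rate conditions. Library compounds screened at 30 nM for % inhibition; apparent Ki from concentration series fit to competitive or tight-binding inhibition equations.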

Row | SMILES | CDK4 % Inhibition at 0.03 μM (human CDK4/cyclin D3) [%] | HCT-116 % Inhibition at 0.25 μM (HCT-116 cell line) [%] | CDK2 % Inhibition at 0.03 μM (CDK2/cyclin A) [%] | HCT-116 % Inhibition at 0.25 μM (HCT-116 cell line; 0.25 µM) [%]
1 | Nc1nc(Nc2ccc(C(=O)N3CCC4(CC3)OCCO4)cc2)sc1C(=O)c1c(F)cccc1F [Example G34] | 9 | 53 | 8 | 
2 | CCN(CC)CCN(CC)C(=O)c1ccc(Nc2nc(N)c(C(=O)c3c(F)cccc3F)s2)cc1 [Example G35] | 8 | 53 | 5 | 
3 | COCCN(CCOC)C(=O)c1ccc(Nc2nc(N)c(C(=O)c3c(F)cccc3F)s2)cc1 [Example G36] | 6 | 62 | −4 | 
4 | CN(C)C1CCN(C(=O)c2ccc(Nc3nc(N)c(C(=O)c4c(F)cccc4F)s3)cc2)C1 (stereo not drawn) [Example G37] | 25 |  | 11 | 65
5 | Cc1cc(NC(=O)c2ccc(Nc3nc(N)c(C(=O)c4c(F)cccc4F)s3)cc2)ccc1Cl [Example G38] | 7 | 65 | 3 | 
6 | COC(=O)c1ccccc1NC(=O)c1ccc(Nc2nc(N)c(C(=O)c3c(F)cccc3F)s2)cc1 [Example G39] | −1 | 65 | −4 | 
7 | Nc1nc(Nc2ccc(C(=O)N3CC=CC3)cc2)sc1C(=O)c1c(F)cccc1F [Example G40] | 18 | 61 | 4 | 
8 | NC(=O)C1CCCN(C(=O)c2ccc(Nc3nc(N)c(C(=O)c4c(F)cccc4F)s3)cc2)C1 (stereo not drawn) [Example G41] | 10 | 50 | 11 | 
9 | CN(CC1OCCO1)C(=O)c1ccc(Nc2nc(N)c(C(=O)c3c(F)cccc3F)s2)cc1 [Example G42] | 7 | 54 | 10 | 
10 | NC(=O)C1CCN(C(=O)c2ccc(Nc3nc(N)c(C(=O)c4c(F)cccc4F)s3)cc2)CC1 [Example G43] | 12 | 62 | 5 | 
11 | Cc1ccc(NC(=O)c2ccc(Nc3nc(N)c(C(=O)c4c(F)cccc4F)s3)cc2)c(Cl)c1 [Example G44] | 14 | 72 | 8 | 
12 | COc1ccc(NC(=O)c2ccc(Nc3nc(N)c(C(=O)c4c(F)cccc4F)s3)cc2)c(OC)c1 [Example G45] | 16 | 89 | 16 | 
13 | CCOC(=O)c1ccccc1NC(=O)c1ccc(Nc2nc(N)c(C(=O)c3c(F)cccc3F)s2)cc1 [Example G46] | 11 | 58 | 4 | 
14 | Nc1nc(Nc2ccc(C(=O)N3CCCC3)cc2)sc1C(=O)c1c(F)cccc1F [Example G47] | 6 | 53 | −15 | 
15 | Nc1nc(Nc2ccc(C(=O)N3CCCC(CO)C3)cc2)sc1C(=O)c1c(F)cccc1F (stereo not drawn) [Example G48] | 3 | 50 | 1 | 
16 | Nc1nc(Nc2ccc(C(=O)N3CCCC(O)C3)cc2)sc1C(=O)c1c(F)cccc1F (stereo not drawn) [Example G49] | 4 | 57 | 7 | 
17 | COC(=O)CN(C)C(=O)c1ccc(Nc2nc(N)c(C(=O)c3c(F)cccc3F)s2)cc1 [Example G50] | 10 | 61 | 9 | 
18 | CC(C)c1ccccc1NC(=O)c1ccc(Nc2nc(N)c(C(=O)c3c(F)cccc3F)s2)cc1 [Example G51] | −1 | 89 | 9 | 

Row | SMILES | CDK4 % Inhibition at 0.03 μM (human CDK4/cyclin D3) [%] | HCT-116 % Inhibition at 0.25 μM (HCT-116 cell line) [%] | CDK2 % Inhibition at 0.03 μM (CDK2/cyclin A) [%] | HCT-116 % Inhibition at 0.25 μM (HCT-116 cell line; 0.25 µM) [%]
19 | Nc1nc(Nc2ccc(C(=O)Nc3ccc4c(c3)OCO4)cc2)sc1C(=O)c1c(F)cccc1F [Example G52] | 5 | 65 | 10 | 
20 | Nc1nc(Nc2ccc(C(=O)Nc3ccccc3CO)cc2)sc1C(=O)c1c(F)cccc1F [Example G53] | 6 | 89 | 17 | 
21 | COc1ccc(NC(=O)c2ccc(Nc3nc(N)c(C(=O)c4c(F)cccc4F)s3)cc2)cc1 [Example G54] | 9 | 86 | 8 | 
22 | Nc1nc(Nc2ccc(C(=O)N3CCC(O)C3)cc2)sc1C(=O)c1c(F)cccc1F (stereo not drawn) [Example G55] | 16 | 57 | 22 | 
23 | Nc1nc(Nc2ccc(C(=O)N3CCC(O)CC3)cc2)sc1C(=O)c1c(F)cccc1F [Example G56] | 10 | 59 | 24 | 
24 | CN(C)CCN(C)C(=O)c1ccc(Nc2nc(N)c(C(=O)c3c(F)cccc3F)s2)cc1 [Example G57] | 19 | 51 | 17 | 
25 | CN(CCc1ccncc1)C(=O)c1ccc(Nc2nc(N)c(C(=O)c3c(F)cccc3F)s2)cc1 [Example G58] | 17 | 53 | 19 | 
26 | COc1ccc(NC(=O)c2ccc(Nc3nc(N)c(C(=O)c4c(F)cccc4F)s3)cc2)cc1Cl [Example G59] | 3 | 53 | 25 | 
27 | N#Cc1cccc(NC(=O)c2ccc(Nc3nc(N)c(C(=O)c4c(F)cccc4F)s3)cc2)c1 [Example G60] | 18 | 66 | 12 | 
28 | COC(=O)c1ccc(NC(=O)c2ccc(Nc3nc(N)c(C(=O)c4c(F)cccc4F)s3)cc2)cc1 [Example G61] | 19 | 58 | 19 | 
29 | Nc1nc(Nc2ccc(C(=O)N3CCN(Cc4ccc5c(c4)OCO5)CC3)cc2)sc1C(=O)c1c(F)cccc1F [Example G62] | 22 | 50 | 7 | 
30 | Nc1nc(Nc2ccc(C(=O)N3CCC(CCO)CC3)cc2)sc1C(=O)c1c(F)cccc1F [Example G63] | 7 | 54 | 4 | 
31 | CN(C)CCCN(C)C(=O)c1ccc(Nc2nc(N)c(C(=O)c3c(F)cccc3F)s2)cc1 [Example G64] | 17 | 57 | 5 | 
32 | CC(=O)N1CCN(C(=O)c2ccc(Nc3nc(N)c(C(=O)c4c(F)cccc4F)s3)cc2)CC1 [Example G65] | 17 | 58 | 12 | 
33 | CC(=O)Nc1ccc(NC(=O)c2ccc(Nc3nc(N)c(C(=O)c4c(F)cccc4F)s3)cc2)cc1 [Example G66] | 14 | 60 | 26 | 
34 | Nc1nc(Nc2ccc(C(=O)Nc3cccc4ncccc34)cc2)sc1C(=O)c1c(F)cccc1F [Example G67] | 12 | 82 | 25 | 
35 | Nc1nc(Nc2ccc(C(=O)Nc3cc(F)cc(F)c3)cc2)sc1C(=O)c1c(F)cccc1F [Example G68] | 3 | 59 | 6 | 
